# Experimental data taken from the supplement of paper PMC11061612.
# Experiments:
# Assay in all cases: combination Emax (second highest fraction inhibited in the dose matrix, 72 h); higher = more inhibition; extreme values may be limits of the assay
# [1] = tested on: A253 (Head and Neck Carcinoma)
# Method in brief: (§1)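 After 24 hours at 37°C and 5% CO2 in 1536-well plates, cells in DMEM/F12 or RPMI plus 10% FBS received two-drug dose matrices for 72 hours. Viability came from CellTiter-Glo 2.0 luminescence and was scaled as inhibition, anchored at 0 by vehicle wells and at 1 by blank wells. Combination Emax is taken as the second-highest inhibition in the matrix, and Bliss excess as the observed combination effect less EA + EB − EA·EB, with EA and EB the single-agent effects.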
# [2] = tested on: CGTH-W-1 (Thyroid Gland Carcinoma)
# Method in brief: as §1
# [3] = tested on: UACC-812 (Breast Carcinoma)
# Method in brief: as §1
# COLO-792 (Melanoma) = tested on: COLO-792 (Melanoma)
# Method in brief: as §1
# [4] = tested on: NCI-H2087 (Lung Adenocarcinoma)
# Method in brief: as §1
# [5] = tested on: JIMT-1 (Breast Carcinoma)
# Method in brief: as §1
# [6] = tested on: CESS (Acute Myeloid Leukemia)
# Method in brief: as §1
# [7] = tested on: MHH-ES-1 (Ewing's Sarcoma)
# Method in brief: as §1
# [8] = tested on: Jurkat (T-Lymphoblastic Leukemia)
# Method in brief: as §1
# [9] = tested on: DU-4475 (Breast Carcinoma)
# Method in brief: as §1
# [10] = tested on: HCC1428 (Breast Carcinoma)
# Method in brief: as §1
# RH-41 (Rhabdomyosarcoma) = tested on: RH-41 (Rhabdomyosarcoma)
# Method in brief: as §1
# [11] = tested on: EPLC-272H (Other Solid Carcinomas)
# Method in brief: as §1
# EB2 (Burkitt's Lymphoma) = tested on: EB2 (Burkitt's Lymphoma)
# Method in brief: as §1
# [12] = tested on: NCI-H441 (Lung Adenocarcinoma)
# Method in brief: as §1
# [13] = tested on: GA-10 (Burkitt's Lymphoma)
# Method in brief: as §1
# [14] = tested on: GCT (Other Solid Carcinomas)
# Method in brief: as §1
# [15] = tested on: NCI-H1651 (Lung Adenocarcinoma)
# Method in brief: as §1
# [16] = tested on: A2780 (Ovarian Carcinoma)
# Method in brief: as §1
# IM-9 (Non-Cancerous) = tested on: IM-9 (Non-Cancerous)
# Method in brief: as §1
SMILES,combination Emax [1],combination Emax [2],combination Emax [3],combination Emax (COLO-792 (Melanoma)),combination Emax [4],combination Emax [5],combination Emax [6],combination Emax [7],combination Emax [8],combination Emax [9],combination Emax [10],combination Emax (RH-41 (Rhabdomyosarcoma)),combination Emax [11],combination Emax (EB2 (Burkitt's Lymphoma)),combination Emax [12],combination Emax [13],combination Emax [14],combination Emax [15],combination Emax [16],combination Emax (IM-9 (Non-Cancerous))
"COc1cccc2c1C(=O)c1c(O)c3c(c(O)c1C2=O)C[C@@](O)(C(=O)CO)C[C@@H]3O[C@H]1C[C@H](N)[C@H](O)[C@H](C)O1 [Doxorubicin] + Cc1cc2ncnn2cc1Nc1ncc2c(n1)n(C1CCOCC1)c(=O)n2C [AZD7648] (first compound max 1 µM, 7x7, partner max 10 µM)",0.957,0.749,0.296,0.445,0.655,0.697,0.949,0.916,0.972,1,0.168,0.95,0.539,0.979,0.452,0.963,0.625,0.712,0.934,1
"Cc1c2c(nn1C)CSCc1cc(n(C)n1)CSc1cc(c3ccccc3c1)OCCCc1c(C(=O)O)n(C)c3c-2c(Cl)ccc13 [AZD5991] + C1CN(CCC1(C(=O)N[C@@H](CCO)C2=CC=C(C=C2)Cl)N)C3=NC=NC4=C3C=CN4 [Capivasertib] (first compound max 1 µM, 7x7, partner max 3 µM)",0.92,0.265,0.427,0.988,0.129,0.21,0.566,0.591,1,0.24,0.977,1,0.932,0.479,0.237,0.858,0.438,0.254,0.838,0.756
"Cc1c2c(nn1C)CSCc1cc(n(C)n1)CSc1cc(c3ccccc3c1)OCCCc1c(C(=O)O)n(C)c3c-2c(Cl)ccc13 [AZD5991] + Cc1cc2ncnn2cc1Nc1ncc2c(n1)n(C1CCOCC1)c(=O)n2C [AZD7648] (first compound max 1 µM, 7x7, partner max 10 µM)",0.849,0.181,0.488,1,0.187,0.255,0.416,0.688,0.951,0.297,0.977,1,0.94,0.465,0.259,0.851,0.352,0.33,0.751,0.561
"COc1cccc(OCCCN)c1-c1cc(Nc2cnc(C#N)cn2)n[nH]1 [Prexasertib] + CN(C)CCCOc1ccc(-c2ccc3ncc4c(c3c2)n(C2CCOCC2)c(=O)n4C)cn1 [AZD0156] (first compound max 1 µM, 7x7, partner max 1 µM)",0.774,0.777,0.537,0.386,0.761,0.869,0.975,0.722,0.992,0.951,0.408,0.944,0.924,0.909,0.513,1,0.324,0.677,0.673,1
"CC(=O)Nc1cccc(-n2c(=O)n(C3CC3)c(=O)c3c(Nc4ccc(I)cc4F)n(C)c(=O)c(C)c32)c1 [Trametinib] + Cc1nc(-c2cn3c(n2)-c2ccc(-c4cnn(C(C)(C)C(N)=O)c4)cc2OCC3)n(C(C)C)n1 [Taselisib] (first compound max 1 µM, 7x7, partner max 10 µM)",0.954,0.99,0.461,1,0.639,0.631,0.66,0.563,0.692,1,0.278,1,1,0.593,0.639,0.682,0.764,0.285,0.972,0.941
"Cc1c2c(nn1C)CSCc1cc(n(C)n1)CSc1cc(c3ccccc3c1)OCCCc1c(C(=O)O)n(C)c3c-2c(Cl)ccc13 [AZD5991] + CN(C)CCCOc1ccc(-c2ccc3ncc4c(c3c2)n(C2CCOCC2)c(=O)n4C)cn1 [AZD0156] (first compound max 1 µM, 7x7, partner max 1 µM)",0.908,0.19,0.491,1,0.201,0.225,0.233,0.652,0.928,0.244,0.961,1,0.936,0.42,0.246,0.776,0.502,0.212,0.682,0.608
"CCc1c2c(nc3ccc(O)cc13)-c1cc3c(c(=O)n1C2)COC(=O)[C@]3(O)CC [SN-38] + CN(C)CCCOc1ccc(-c2ccc3ncc4c(c3c2)n(C2CCOCC2)c(=O)n4C)cn1 [AZD0156] (first compound max 0.3 µM, 7x7, partner max 1 µM)",0.881,0.771,0.608,0.361,0.921,0.266,0.984,1,0.999,0.95,0.123,0.719,0.755,0.948,0.614,0.913,0.683,0.852,0.726,1
